Results from patent US9796742B2, “Kinase inhibitors” (Respivert Limited, priority 2012, dated 2017).
Read-outs that look alike come from different tables or passages of the source.

Key:
GSK3α = GSK3α (Homo sapiens (Human), UniProt P49840); test: GSK 3α enzyme inhibition (FRET, Z-LYTE; Method 2); assay type: biochemical
Protocol: The enzyme inhibitory activities of compounds disclosed herein are determined by FRET using synthetic peptides labelled with both donor and acceptor fluorophores (Z-LYTE, Invitrogen Ltd., Paisley, UK).
The inhibitory activities of compounds of the invention against the GSK 3α enzyme isoform (Invitrogen), are evaluated by determining the level of activation/phosphorylation of the target peptide. The GSK3-α protein (500 ng/mL, 2.5 μL) is mixed with the test compound (2.5 μL at either 4 μg/mL, 0.4 μg/mL, 0.04 μg/mL, or 0.004 μg/mL) for 2 hr at RT. The FRET peptide (8 μM, 2.5 μL), which is a phosphorylation target for GSK3α, and ATP (40 μM, 2.5 μL) are then added to the enzyme/compound mixture and the resulting mixture incubated for 1 hr. Development reagent (protease, 5 μL) is added for 1 hr prior to detection in a fluorescence microplate reader (Varioskan® Flash, ThermoFisher Scientific).
In all cases, the site-specific protease cleaves non-phosphorylated peptide only and eliminates the FRET signal. Phosphorylation levels of each reaction are calculated using the ratio of coumarin emission (donor) over fluorescein emission (acceptor), for which high ratios indicate high phosphorylation and low ratios indicate low phosphorylation levels. The percentage inhibition of each reaction is calculated relative to non-inhibited control and the 50% inhibitory concentration (IC50 value) is then calculated from the concentration-response curve.
This method follows the same steps as Method 1 above, but utilises a shorter period of mixing of the test compound (105 minutes instead of 2 hours) with the GSK3-α protein.

PBMCs = test: LPS-induced TNFα/IL-8 release in PBMC cells; assay type: cell-based; conditions: Homo sapiens, LPS-stimulated PBMCs
Protocol: Peripheral blood mononuclear cells (PBMCs) from healthy subjects are separated from whole blood using a density gradient (Lymphoprep, Axis-Shield Healthcare). The PBMCs are seeded in 96 well plates and treated with compounds at the desired concentration for 2 hours before addition of 1 ng/mL LPS (Escherichia Coli 0111:B4 from Sigma Aldrich) for 24 hours under normal tissue culture conditions (37° C., 5% CO2). The supernatant is harvested for determination of IL-8 and TNFα concentrations by sandwich ELISA (Duo-set, R&D systems) and read on the fluorescence microplate reader (Varioskan® Flash, ThermoFisher Scientific). The concentration at 50% inhibition (IC50) of IL-8 and TNFα production is calculated from the dose response curve.

[1] = IL-8, read-out: IC50 Values for Inhibition of Cytokine Release, PBMCs IL-8
[2] = TNFα, read-out: IC50 Values for Inhibition of Cytokine Release, PBMCs TNFα

Chain of GSK3α (P49840 whole entry): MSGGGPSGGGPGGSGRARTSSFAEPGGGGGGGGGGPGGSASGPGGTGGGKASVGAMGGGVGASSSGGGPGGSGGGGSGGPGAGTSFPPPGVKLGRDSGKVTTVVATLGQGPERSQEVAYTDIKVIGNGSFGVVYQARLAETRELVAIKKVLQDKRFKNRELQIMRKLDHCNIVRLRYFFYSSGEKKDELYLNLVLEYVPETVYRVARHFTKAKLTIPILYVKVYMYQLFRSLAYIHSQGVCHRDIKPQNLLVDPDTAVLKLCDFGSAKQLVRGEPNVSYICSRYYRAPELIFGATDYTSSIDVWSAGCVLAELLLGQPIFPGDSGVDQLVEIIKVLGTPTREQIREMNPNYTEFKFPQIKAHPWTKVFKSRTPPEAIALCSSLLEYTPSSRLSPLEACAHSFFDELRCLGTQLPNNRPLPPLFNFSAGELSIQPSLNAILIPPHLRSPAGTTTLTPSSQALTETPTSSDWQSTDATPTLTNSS

Row | Structure (SMILES) | IC50 (GSK3α) | IC50 (PBMCs; [1]) | IC50 (PBMCs; [2])
1 | C[Si](C)(C)c1cc(NC(=O)Nc2ccc(Oc3ccnc(Nc4ccccc4)n3)c3ccccc23)n(-c2ccc(P(C)(C)=O)cc2)n1 [Example 5, 1-(1-(4-(Dimethylphosphoryl)phenyl)-3-(trimethylsilyl)-1H-pyrazol-5-yl)-3-(4-((2-(phenyl-amino)pyrimidin-4-yl)oxy)naphthalen-1-yl)urea] | 429 nM | 16.3 nM | 4.3 nM
2 | CCOP(C)(=O)c1ccc(-n2nc(C(C)(C)C)cc2NC(=O)Nc2ccc(Oc3ccnc(Nc4ccccc4)n3)c3ccccc23)cc1 (centres unmarked) [Example 9, Ethyl (4-(3-(tert-butyl)-5-(3-(4-((2-(phenylamino)pyrimidin-4-yl)oxy)naphthalen-1-yl)-ureido)-1H-pyrazol-1-yl)phenyl)(methyl)phosphinate] | 1440 nM | 24 nM | 6.2 nM
3 | CC(C)(C)c1cc(NC(=O)Nc2ccc(Oc3ccnc(Nc4ccc5[nH]ncc5c4)n3)c3ccccc23)n(-c2cccc(P(C)(C)=O)c2)n1 [Example 10, 1-(4-((2-((1H-Indazol-5-yl)amino)pyrimidin-4-yl)oxy)naphthalen-1-yl)-3-(3-(tert-butyl)-1-(3-(dimethylphosphoryl)phenyl)-1H-pyrazol-5-yl)urea] | 684 nM | 13.7 nM | 4 nM
4 | CC(C)(C)c1cc(NC(=O)Nc2ccc(Oc3ccnc(Nc4ccc5c(c4)NC(=O)C5)n3)c3ccccc23)n(-c2cccc(P(C)(C)=O)c2)n1 [Example 11] | 205 nM | 16.2 nM | 2.7 nM
5 | CC(C)(C)c1cc(NC(=O)Nc2ccc(Oc3ccnc(Nc4ccc5onc(N)c5c4)n3)c3ccccc23)n(-c2cccc(P(C)(C)=O)c2)n1 [Example 12] | 73 nM | 8.5 nM | 1.8 nM
6 | Cc1cc(Nc2nccc(Oc3ccc(NC(=O)Nc4cc(C(C)(C)C)nn4-c4cccc(P(C)(C)=O)c4)c4ccccc34)n2)cc2cn[nH]c12 [Example 13, 1-(3-(tert-Butyl)-1-(3-(dimethylphosphoryl)phenyl)-1H-pyrazol-5-yl)-3-(4-((2-((7-methyl-1H-indazol-5-yl)amino)pyrimidin-4-yl)oxy)naphthalen-1-yl)urea] | 208 nM | 3.4 nM | 1.7 nM
7 | CC(C)(C)c1cc(NC(=O)Nc2ccc(Oc3ccnc(Nc4cccc(C(=O)NCCN5CCOCC5)c4)n3)c3ccccc23)n(-c2cccc(P(C)(C)=O)c2)n1 [Example 16, 3-((4-((4-(3-(3-(tert-Butyl)-1-(3-(dimethylphosphoryl)phenyl)-1H-pyrazol-5-yl)ureido)-naphthalen-1-yl)oxy)pyrimidin-2-yl)amino)-N-(2-morpholinoethyl)benzamide] | 72 nM | 8.3 nM | 4.3 nM
8 | CC(C)(C)c1cc(NC(=O)Nc2ccc(Oc3ccnc(Nc4cccc(OCCN5CCOCC5)c4)n3)c3ccccc23)n(-c2ccc(P(C)(C)=O)cc2)n1 [Example 17, 1-(3-(tert-Butyl)-1-(4-(dimethylphosphoryl)phenyl)-1H-pyrazol-5-yl)-3-(4-((2-((3-(2-morpholinoethoxy)phenyl)amino)pyrimidin-4-yl)oxy)naphthalen-1-yl)urea] | 74 nM | 5.4 nM | 1.8 nM
9 | CC(C)(C)c1cc(NC(=O)Nc2ccc(Oc3ccnc(Nc4cccc(C(=O)NCCN5CCOCC5)c4)n3)c3ccccc23)n(-c2ccc(P(C)(C)=O)cc2)n1 [Example 24, 3-((4-((4-(3-(3-(tert-Butyl)-1-(4-(dimethylphosphoryl)phenyl)-1H-pyrazol-5-yl)ureido)-naphthalen-1-yl)oxy)pyrimidin-2-yl)amino)-N-(2-morpholinoethyl)benzamide] | 293 nM | 26.3 nM | 

Second part, led by results:

Row | IC50 (GSK3α) | Structure (SMILES) | IC50 (PBMCs; [1]) | IC50 (PBMCs; [2])
10 | 183 nM | CC(C)(C)c1cc(NC(=O)Nc2ccc(Oc3ccnc(Nc4ccccc4)n3)c3ccccc23)n(-c2ccc(CP(C)(C)=O)cc2)n1 [Example 6, 1-(3-(tert-Butyl)-1-(4-((dimethylphosphoryl)methyl)phenyl)-1H-pyrazol-5-yl)-3-(4-((2-(phenylamino)pyrimidin-4-yl)oxy)naphthalen-1-yl)urea] | 6.4 nM | 2.5 nM
11 | 486 nM | CC(C)(C)c1cc(NC(=O)Nc2ccc(Oc3ccnc(Nc4ccc5[nH]ncc5c4)n3)c3ccccc23)n(-c2ccc(P(C)(C)=O)cc2)n1 [Example 7, 1-(4-((2-((1H-Indazol-5-yl)amino)pyrimidin-4-yl)oxy)naphthalen-1-yl)-3-(3-(tert-butyl)-1-(4-(dimethylphosphoryl)phenyl)-1H-pyrazol-5-yl)urea] | 6.7 nM | 2.5 nM
12 | 849 nM | CC(C)(C)c1cc(NC(=O)Nc2ccc(Oc3ccnc(Nc4ccccc4)n3)c3ccccc23)n(-c2ccc(P3(=O)CCCC3)cc2)n1 [Example 8, 1-(3-(tert-Butyl)-1-(4-(1-oxidophospholan-1-yl)phenyl)-1H-pyrazol-5-yl)-3-(4-((2-(phenylamino)pyrimidin-4-yl)oxy)naphthalen-1-yl)urea] | 17.2 nM | 4.8 nM
13 | 294 nM | CC(C)(C)c1cc(NC(=O)Nc2ccc(Oc3ccnc(Nc4ccc5c(c4)NC(=O)C5)n3)c3ccccc23)n(-c2ccc(P(C)(C)=O)cc2)n1 [Example 14, 1-(3-(tert-Butyl)-1-(4-(dimethylphosphoryl)phenyl)-1H-pyrazol-5-yl)-3-(4-((2-((2-oxoindolin-6-yl)amino)pyrimidin-4-yl)oxy)naphthalen-1-yl)urea] | 13.2 nM | 4 nM
14 | 168 nM | CC(C)(C)c1cc(NC(=O)Nc2ccc(Oc3ccnc(Nc4ccc(SCCO)cc4)n3)c3ccccc23)n(-c2ccc(P(C)(C)=O)cc2)n1 [Example 18, 1-(3-(tert-Butyl)-1-(4-(dimethylphosphoryl)phenyl)-1H-pyrazol-5-yl)-3-(4-((2-((4-((2-hydroxyethyl)thio)phenyl)amino)pyrimidin-4-yl)oxy)naphthalen-1-yl)urea] | 7.2 nM | 2.9 nM
15 | 76 nM | CC(C)(C)c1cc(NC(=O)Nc2ccc(Oc3ccnc(Nc4ccccc4)n3)c3ccccc23)n(-c2ccc(P(C)(=O)O)cc2)n1 [Example 19, (4-(3-(tert-Butyl)-5-(3-(4-((2-(phenylamino)pyrimidin-4-yl)oxy)naphthalen-1-yl)ureido)-1H-pyrazol-1-yl)phenyl)(methyl)phosphinic acid] | 407 nM | 
16 | 68 nM | CC(C)(C)c1cc(NC(=O)Nc2ccc(Oc3ccnc(Nc4ccc5onc(N)c5c4)n3)c3ccccc23)n(-c2ccc(P(C)(C)=O)cc2)n1 [Example 20, 1-(4-((2-((3-Aminobenzo[d]isoxazol-5-yl)amino)pyrimidin-4-yl)oxy)naphthalen-1-yl)-3-(3-(tert-butyl)-1-(4-(dimethylphosphoryl)phenyl)-1H-pyrazol-5-yl)urea] | 9 nM | 
17 | 163 nM | CC(C)(C)c1cc(NC(=O)Nc2ccc(Oc3ccnc(Nc4ccc(P(C)(C)=O)cc4)n3)c3ccccc23)n(-c2ccc(P(C)(C)=O)cc2)n1 [Example 25, 1-(3-(tert-Butyl)-1-(4-(dimethylphosphoryl)phenyl)-1H-pyrazol-5-yl)-3-(4-((2-((4-(dimethyl-phosphoryl)phenyl)amino)pyrimidin-4-yl)oxy)naphthalen-1-yl)urea] | 14.4 nM | 
